The target of assay [1] is Recombinant Human NF-kappaB-Inducing Kinase (NIK/MAP3K14) (Homo sapiens, UniProt Q99558). As to the kind of experiment: Biological Assay A2: inhibition of auto-phosphorylation of recombinant human NIK/MAP3K14 (AlphaScreen). In kind it is biochemical. The following applies: 25 microM ATP, 0.2 nM NIK/MAP3K14, 1 h at 25° C., averaged over all batches, read-out: Alpha-Screen IC50. How it is done:
Inhibition of Auto-Phosphorylation of Recombinant Human NF-kappaB-Inducing Kinase (NIKIMAP3K14) Activity (AlphaScreen®)
NIK/MAP3K14 auto-phosphorylation activity was measured using the AlphaScreen® (ascreen) format (Perkin Elmer). All compounds tested were dissolved in dimethyl sulfoxide (DMSO) and further dilutions were made in assay buffer. Final DMSO concentration was 1% (v/v) in assays. Assay buffer was 50 mM Tris pH 7.5 containing 1 mM EGTA (ethylene glycol tetraacetic acid), 1 mM DTT (dithiothreitol), 0.1 mM Na3VO4, 5 mM MgCl2, 0.01% Tween® 20. Assays were carried out in 384 well Alphaplates (Perkin Elmer). Incubations consisted of compound, 25 microM Adenosine-5′-triphosphate (ATP), and 0.2 nM NIK/MAP3K14. Incubations were initiated by addition of GST-tagged NIK/MAP3K14 enzyme, carried out for 1 h at 25° C. and terminated by addition of stop buffer containing anti-phospho-IKK Ser176/180 antibody. Protein A Acceptor and Glutathione-Donor beads were added before reading using an EnVision® Multilabel Plate Reader (Perkin Elmer). Signal obtained in the wells containing blank samples was subtracted from all other wells and IC50's were determined by fitting a sigmoidal curve to % inhibition of control versus Log10 compound concentration.
For orientation: In Alpha technology, singlet oxygen from a donor bead excites a nearby acceptor bead.

In assay [2] the test system is JJN-3 cells. The experiment in a line: Biological Assay C: antiproliferative activity on JJN-3 cells (CellTiter-Glo). In kind it is cell-based. The conditions noted are these: Homo sapiens, 72 hr treatment. On the procedure:
(§1) Determination of Antiproliferative Activity on LP-1, L-363 and JJN-3 Cells
(§2) All compounds tested were dissolved in DMSO and further dilutions were made in culture medium. Final DMSO concentration was 0.3% (v/v) in cell proliferation assays. Viability was assessed using CellTiter-Glo cell viability assay kit (Promega). The human LP-1, L-363 and JJN-3 cells (DSMZ) were cultured in RPMI 1640 medium supplemented with 2 mM L-glutamine, and 10% fetal calf serum (PAA). Cells were routinely kept as suspension cells at 37° C. in a humidified 5% CO2 atmosphere. Cells were passaged at a seeding density of 0.2×10^6/ml twice a week. Cells were seeded in black tissue culture treated 96-well plates (Perkin Elmer). Densities used for plating ranged from 2,000 to 6,000 cells per well in a total volume of 75 μl medium. After twenty four hours, drugs and/or solvents were added (25 μl) to a final volume of 100 μl. Following 72 hr of treatment plates were removed from the incubator and allowed to equilibrate to room temperature for approx 10 min. 100 μl CellTiter-Glo reagent was added to each well that was then covered (Perkin Elmer Topseal) and shaken on plate shaker for 10 min. Luminescence was measured on a HTS Topcount (Perkin Elmer). Within an experiment, the results for each treatment were the mean of 2 replicate wells. For initial screening purposes, compounds were tested using a 9 point dilution curve (serial 1:3 dilutions). For each experiment, controls (containing no drug) and a blank incubation (containing cells read at the time of compound addition) were run in parallel. The blank value was subtracted from all control and sample values. For each sample, the mean value for cell growth (in relative light units) was expressed as a percentage of the mean value for cell growth of the control.
(In general: Cellular ATP, detected with luciferase, serves as a proxy for viable cell number.)

Assay [3] has as its system LP-1 cells. As to the kind of experiment: Biological Assay C: antiproliferative activity on LP-1 cells (CellTiter-Glo). In kind it is cell-based. The conditions noted are these: Homo sapiens, 72 hr treatment. On the procedure: as §1, §2
The test system of assay [4] is L-363 cells. The experiment in a line: Biological Assay C: antiproliferative activity on L-363 cells (CellTiter-Glo). The assay is classed as cell-based. The following applies: Homo sapiens, 72 hr treatment. On the procedure: as §1, §2

Chain of Recombinant Human NF-kappaB-Inducing Kinase (NIK/MAP3K14) (Q99558 whole entry): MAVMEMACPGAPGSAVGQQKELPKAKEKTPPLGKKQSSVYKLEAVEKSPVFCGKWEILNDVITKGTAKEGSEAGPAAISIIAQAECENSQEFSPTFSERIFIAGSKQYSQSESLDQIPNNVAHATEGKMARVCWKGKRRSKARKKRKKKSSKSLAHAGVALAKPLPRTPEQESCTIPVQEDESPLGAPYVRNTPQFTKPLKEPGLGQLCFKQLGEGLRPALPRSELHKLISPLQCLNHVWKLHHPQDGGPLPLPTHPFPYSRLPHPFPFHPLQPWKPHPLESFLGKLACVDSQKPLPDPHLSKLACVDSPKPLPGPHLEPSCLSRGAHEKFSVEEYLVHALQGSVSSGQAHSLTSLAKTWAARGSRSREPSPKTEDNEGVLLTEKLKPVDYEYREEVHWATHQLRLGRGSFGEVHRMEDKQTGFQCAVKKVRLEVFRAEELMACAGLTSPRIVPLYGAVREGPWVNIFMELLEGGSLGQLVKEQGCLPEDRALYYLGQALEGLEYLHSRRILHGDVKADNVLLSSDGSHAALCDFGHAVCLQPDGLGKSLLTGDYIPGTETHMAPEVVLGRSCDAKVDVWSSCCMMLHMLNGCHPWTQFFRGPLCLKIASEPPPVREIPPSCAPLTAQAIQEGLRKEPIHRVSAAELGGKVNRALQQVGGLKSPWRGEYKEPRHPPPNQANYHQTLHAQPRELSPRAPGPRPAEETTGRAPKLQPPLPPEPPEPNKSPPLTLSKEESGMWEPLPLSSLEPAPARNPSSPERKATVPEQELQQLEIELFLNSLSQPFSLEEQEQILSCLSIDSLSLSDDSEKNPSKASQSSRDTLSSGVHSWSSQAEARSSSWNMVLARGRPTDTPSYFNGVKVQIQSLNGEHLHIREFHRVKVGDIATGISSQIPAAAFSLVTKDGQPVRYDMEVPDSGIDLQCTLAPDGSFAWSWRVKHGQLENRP

The term IC50 denotes the point on the concentration scale where inhibition reaches its midpoint. Broadly, the EC50 is the midpoint of the concentration-response curve. Take `CC(O)(C#Cc1cc2c(cn1)c(C1CCN(CCC(F)(F)F)CC1)cn2-c1ccnc(N)n1)C1CC1` (single isomer, unassigned) [Compound 51]: in assay [1], the IC50 is 13 nM. Also, the EC50 was determined as 220 nM in assay [2], 199 nM in assay [3] and 108 nM in assay [4].
The corresponding values for `CC(CC#N)c1cn(-c2nc(N)ncc2F)c2cc(C#CC(C)(C)O)ncc12` (centres unmarked) [Compound 38] are 38 nM, 614 nM, 2600 nM and 261 nM.
Turning to `COCCCc1cn(-c2nc(N)ncc2F)c2cc(C#CC(C)(C)O)ncc12` [Compound 39], the IC50 in assay [1] was determined as 36 nM. For the same molecule, the EC50 in assay [2] stood at 579 nM; in assay [3] it was 849 nM; in assay [4] it was 369 nM.
Regarding `CC(C)(O)C#Cc1cc2c(cn1)c(C1CCN(CCF)CC1)cn2-c1nc(N)ncc1F` [Compound 40], the IC50 in assay [1] amounted to 74 nM. Moreover, the EC50 in assay [2] was 151 nM; in assay [3] it was 259 nM; in assay [4], 93 nM.
As for `CN1CCC(c2cn(-c3ccnc(N)n3)c3cc(C#CC(C)(O)C4CC4)ncc23)CC1` (centres unmarked) [Compound 41], in assay [1], the IC50 is 78 nM. For the same molecule, the results for the EC50 in assay [2], in assay [3] and in assay [4] were 311 nM, 3240 nM and 213 nM, respectively.
Taken in the same sequence, the figures for `CC(O)(C#Cc1cc2c(cn1)c(C1(F)CN(C3CC3)C1)cn2-c1ccnc(N)n1)C1CC1` (centres unmarked) [Compound 42] were 638 nM, 2790 nM, 18200 nM and 1540 nM.
As to `CC(O)(C#Cc1cc2c(cn1)c(C1CCN(CCC(F)(F)F)CC1)cn2-c1ccnc(N)n1)C1CC1` (centres unmarked) [Compound 43], the IC50 in assay [1] is 67 nM. Moreover, the EC50 came out at 442 nM in assay [2], 461 nM in assay [3] and 292 nM in assay [4].
The corresponding values for `CC(O)(C#Cc1cc2c(cn1)c(C1CCN(C3CC3)CC1)cn2-c1ccnc(N)n1)C1CC1` (centres unmarked) [Compound 44] are 71 nM, 202 nM, 251 nM and 98 nM.
The corresponding values for `[2H]C([2H])([2H])C(O)(C#Cc1cc2c(cn1)c(C1CCN(C3CC3)CC1)cn2-c1ccnc(N)n1)C([2H])([2H])[2H]` [Compound 45] are 49 nM, 19 nM, 29 nM and 8.3 nM.
For `CC(O)(C#Cc1cc2c(cn1)c(C1CCN(CCC(F)(F)F)CC1)cn2-c1nc(N)ncc1F)C1CC1` (centres unmarked) [Compound 46], in assay [1], the IC50 was 56 nM. The 50% effective concentration (EC50) in assay [2] turned out to be 1090 nM; in assay [3], 979 nM; in assay [4] it was 469 nM.
Taken in the same sequence, the figures for `CC(O)(C#Cc1cc2c(cn1)c(C1CCN(CCCF)CC1)cn2-c1nc(N)ncc1F)C1CC1` (centres unmarked) [Compound 47] were 34 nM, 242 nM, 237 nM and 113 nM.
Taken in the same sequence, the figures for `CC(O)(C#Cc1cc2c(cn1)c(C1CCCN(CCC(F)(F)F)C1)cn2-c1nc(N)ncc1F)C1CC1` (centres unmarked) [Compound 48] were 227 nM, 1670 nM, 2230 nM and 1000 nM.
Taken in the same sequence, the figures for `[2H]C([2H])([2H])C(O)(C#Cc1cc2c(cn1)c(C1CCN(CCC(F)(F)F)CC1)cn2-c1nc(N)ncc1F)C([2H])([2H])[2H]` [Compound 49] were 69 nM, 231 nM, 244 nM and 130 nM.
In the case of `[2H]C([2H])([2H])C(O)(C#Cc1cc2c(cn1)c(C1CCN(CCC(F)(F)F)CC1)cn2-c1ccnc(N)n1)C([2H])([2H])[2H]` [Compound 50], the IC50 in assay [1] was determined as 30 nM. Further, the EC50 in assay [2] was found to be 39 nM; in assay [3], 41 nM; in assay [4], 23 nM.

The values are drawn from US10005773B2, “1-(4-pyrimidinyl)-1H-pyrrolo[3,2-c]pyridine derivatives as NIK inhibitors” (Janssen Pharmaceutica NV, priority 2013, dated 2018).
